Measurements from US20070249588A1 (priority 2003, published 2007).

Molecular target: α7 nAChR subtype (Rattus norvegicus, UniProt Q05941)
Type: binding

Sequence of α7 nAChR subtype (Q05941 23-502 limits assumed): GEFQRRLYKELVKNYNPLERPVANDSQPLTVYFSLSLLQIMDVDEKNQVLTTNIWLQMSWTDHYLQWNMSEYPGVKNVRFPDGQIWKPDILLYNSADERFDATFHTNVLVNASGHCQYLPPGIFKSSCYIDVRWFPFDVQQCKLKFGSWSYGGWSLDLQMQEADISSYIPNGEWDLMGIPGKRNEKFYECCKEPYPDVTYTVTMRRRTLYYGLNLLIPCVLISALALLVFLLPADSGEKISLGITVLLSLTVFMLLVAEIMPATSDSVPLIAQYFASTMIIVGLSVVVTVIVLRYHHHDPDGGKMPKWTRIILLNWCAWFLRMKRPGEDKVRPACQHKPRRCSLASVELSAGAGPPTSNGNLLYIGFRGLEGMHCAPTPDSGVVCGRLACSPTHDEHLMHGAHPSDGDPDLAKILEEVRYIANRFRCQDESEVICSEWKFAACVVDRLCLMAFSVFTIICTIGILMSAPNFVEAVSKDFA

With ^125I-α-Bungarotoxin [^125I-α-BTX] the Kd was 1.67 nM.
